# Earlier results, collected in patent EP0333071A2, “Polypeptides, methods for their preparation, pharmaceutical compositions comprising them and use” (Eisai Co., Ltd., priority 1988, dated 1989).
# System: enhancement in the quantity of spontaneous motion induced by methamphethamine
# Conditions: general administration; comparison statement for neurotensin or derivatives thereof
substance,measurement,value
neurotensin,methamphethamine antagonism,hardly exhibit methamphethamine antagonism
